The NIST ThermoML archive (doi:10.1016/j.jct.2007.11.002)

Assay: xn = mol fraction of the nth substance listed
Details: 101 kPa, Liquid; for viscosity: Capillary tube (Ostwald / Ubbelohde) method

CN1CCOCC1 [N-methylmorpholine] + Cc1ccccc1
Details | mass density, 298.15 K [kg/m3] | mass density, 303.15 K [kg/m3] | mass density, 313.15 K [kg/m3] | mass density, 323.15 K [kg/m3] | viscosity, 298.15 K [mPa·s] | viscosity, 303.15 K [mPa·s] | viscosity, 313.15 K [mPa·s] | viscosity, 323.15 K [mPa·s]
x2 = 0.0457 | 912.04 | 907.63 | 898.17 | 879.98 | 0.847 | 0.839 | 0.807 | 0.795
x2 = 0.1167 | 908.88 | 904.69 | 895.22 | 877.67 | 0.806 | 0.798 | 0.774 | 0.759
x2 = 0.1822 | 905.97 | 901.78 | 892.37 | 875.42 | 0.772 | 0.765 | 0.739 | 0.723
x2 = 0.2455 | 903.08 | 898.89 | 889.47 | 873.11 | 0.739 | 0.732 | 0.705 | 0.687
x2 = 0.2843 | 901.28 | 897.11 | 887.68 | 871.67 | 0.721 | 0.712 | 0.684 | 0.665
x2 = 0.3211 | 899.58 | 895.42 | 885.99 | 870.33 | 0.704 | 0.692 | 0.664 | 0.643
x2 = 0.3862 | 896.61 | 892.43 | 882.99 | 867.93 | 0.678 | 0.664 | 0.634 | 0.612
x2 = 0.4327 | 894.39 | 890.21 | 880.77 | 866.14 | 0.659 | 0.645 | 0.614 | 0.59
x2 = 0.4841 | 891.92 | 887.74 | 878.29 | 864.14 | 0.643 | 0.627 | 0.596 | 0.57
x2 = 0.5512 | 888.55 | 884.36 | 874.87 | 861.34 | 0.622 | 0.606 | 0.573 | 0.546
x2 = 0.5943 | 886.32 | 882.15 | 872.61 | 859.47 | 0.612 | 0.594 | 0.56 | 0.531
x2 = 0.6341 | 884.21 | 880.05 | 870.53 | 857.79 | 0.602 | 0.586 | 0.551 | 0.521
x2 = 0.6877 | 881.26 | 877.11 | 867.65 | 855.41 | 0.594 | 0.575 | 0.539 | 0.507
x2 = 0.7129 | 879.83 | 875.68 | 866.2 | 854.17 | 0.588 | 0.571 | 0.535 | 0.503
x2 = 0.7648 | 876.73 | 872.59 | 863.14 | 851.63 | 0.583 | 0.561 | 0.524 | 0.488
x2 = 0.7895 | 875.15 | 871.01 | 861.57 | 850.28 | 0.581 | 0.559 | 0.521 | 0.487
x2 = 0.8444 | 871.87 | 867.75 | 858.32 | 847.56 | 0.571 | 0.549 | 0.51 | 0.474
x2 = 0.8873 | 869.14 | 865.03 | 855.6 | 845.26 | 0.569 | 0.543 | 0.503 | 0.458
x2 = 0.9348 | 866.19 | 862.08 | 852.67 | 842.77 | 0.558 | 0.536 | 0.49 | 0.444
x2 = 0.9741 | 863.67 | 859.57 | 850.02 | 840.51 | 0.554 | 0.527 | 0.477 | 0.429

CN1CCOCC1 [N-methylmorpholine] + c1ccccc1
Details | mass density, 298.15 K [kg/m3] | mass density, 303.15 K [kg/m3] | mass density, 313.15 K [kg/m3] | mass density, 323.15 K [kg/m3] | viscosity, 298.15 K [mPa·s] | viscosity, 303.15 K [mPa·s] | viscosity, 313.15 K [mPa·s] | viscosity, 323.15 K [mPa·s]
x2 = 0.0554 | 912.69 | 907.91 | 898.27 | 879.87 | 0.847 | 0.836 | 0.811 | 0.789
x2 = 0.1167 | 911.11 | 906.07 | 896.38 | 878.41 | 0.814 | 0.805 | 0.781 | 0.761
x2 = 0.1798 | 909.39 | 904.33 | 894.47 | 876.92 | 0.783 | 0.772 | 0.746 | 0.731
x2 = 0.2477 | 907.18 | 902.35 | 892.51 | 875.44 | 0.753 | 0.741 | 0.713 | 0.695
x2 = 0.2855 | 906.2 | 901.15 | 891.26 | 874.46 | 0.737 | 0.725 | 0.695 | 0.676
x2 = 0.3422 | 904.33 | 899.41 | 889.48 | 873.1 | 0.715 | 0.7 | 0.668 | 0.647
x2 = 0.3762 | 903.31 | 898.32 | 888.33 | 872.2 | 0.704 | 0.688 | 0.654 | 0.632
x2 = 0.4244 | 901.72 | 896.71 | 886.67 | 870.91 | 0.687 | 0.671 | 0.636 | 0.613
x2 = 0.479 | 899.69 | 894.8 | 884.72 | 869.39 | 0.672 | 0.656 | 0.617 | 0.592
x2 = 0.5466 | 897 | 892.15 | 881.97 | 867.18 | 0.655 | 0.637 | 0.598 | 0.568
x2 = 0.5911 | 895.2 | 890.3 | 880.1 | 865.69 | 0.646 | 0.628 | 0.587 | 0.556
x2 = 0.6201 | 893.8 | 889.05 | 878.76 | 864.58 | 0.641 | 0.622 | 0.579 | 0.548
x2 = 0.6822 | 891 | 886.21 | 875.84 | 862.22 | 0.631 | 0.61 | 0.565 | 0.531
x2 = 0.7094 | 889.5 | 884.9 | 874.61 | 861.22 | 0.628 | 0.606 | 0.561 | 0.525
x2 = 0.7655 | 886.8 | 882.04 | 871.56 | 858.69 | 0.625 | 0.6 | 0.551 | 0.509
x2 = 0.7901 | 885.2 | 880.63 | 870.14 | 857.49 | 0.621 | 0.597 | 0.548 | 0.503
x2 = 0.8439 | 882.2 | 877.64 | 867.09 | 854.96 | 0.618 | 0.589 | 0.535 | 0.486
x2 = 0.8933 | 879.6 | 874.81 | 864.21 | 852.55 | 0.613 | 0.583 | 0.521 | 0.468
x2 = 0.9278 | 877.5 | 872.82 | 862.18 | 850.86 | 0.61 | 0.578 | 0.512 | 0.458
x2 = 0.9641 | 875.4 | 870.63 | 859.95 | 848.96 | 0.606 | 0.571 | 0.503 | 0.448
